Results reported in ChEMBL document CHEMBL5233217, “Modification of 7-piperazinylquinolone antibacterials to promising anticancer lead compounds: Synthesis and in vitro studies” (Eur J Med Chem, 2020).
pIC50: −log10 of the molar value.

Columns and labels:
SiHa = experiment: Antiproliferative activity against human SiHa cells assessed as cell growth inhibition incubated for 48 hrs by sulforhodamine B assay; assay type: functional
PANC-1 = experiment: Antiproliferative activity against human PANC-1 cells assessed as cell growth inhibition incubated for 48 hrs by sulforhodamine B assay; assay type: functional
L1210 [1] = experiment: Anticancer activity against mouse L1210 cells assessed as reduction in cell viability by MTT assay; assay type: functional, cell-based
SMMC-7721 [2] = experiment: Antiproliferative activity against human SMMC-7721 cells assessed as reduction in cell viability incubated for 24 hrs by MTT assay; assay type: functional, cell-based; settings: SMMC-7721, 24 h
MCF7 [3] = experiment: Antiproliferative activity against human MCF7 cells assessed as reduction in cell viability incubated for 24 hrs by MTT assay; assay type: functional, cell-based; settings: MCF7, 24 h
HCT-8 [4] = experiment: Antiproliferative activity against human HCT-8 cells assessed as reduction in cell viability incubated for 24 hrs by MTT assay; assay type: functional, cell-based; settings: HCT-8, 24 h
SK-MEL3 = experiment: Anticancer activity against human SK-MEL3 cells assessed as reduction in cell viability incubated for 72 hrs by MTT assay; assay type: functional, cell-based; settings: SK-MEL3, 72 h
MCF7 [5] = experiment: Anticancer activity against human MCF7 cells assessed as reduction in cell viability incubated for 72 hrs by MTT assay; assay type: functional, cell-based; settings: MCF7, 72 h
A-431 = experiment: Anticancer activity against human A-431 cells assessed as reduction in cell viability incubated for 72 hrs by MTT assay; assay type: functional, cell-based; settings: A-431, 72 h
EJ = experiment: Anticancer activity against human EJ cells assessed as reduction in cell viability incubated for 72 hrs by MTT assay; assay type: functional, cell-based
KB = experiment: Anticancer activity against human KB cells assessed as reduction in cell viability incubated for 72 hrs by MTT assay; assay type: functional, cell-based
SW480 = experiment: Anticancer activity against human SW480 cells assessed as reduction in cell viability incubated for 72 hrs by MTT assay; assay type: functional, cell-based; settings: SW480, 72 h
CT26 = experiment: Antitumor activity against mouse CT26 cells assessed as reduction in cell viability incubated for 4 hrs by MTT assay; assay type: functional, cell-based; settings: CT26, 4 h
A549 = experiment: Antitumor activity against human A549 cells assessed as reduction in cell viability incubated for 4 hrs by MTT assay; assay type: functional, cell-based; settings: A549, 4 h
[6] = Cytotoxicity against Chinese hamster CHO cells assessed as reduction in cell viability by MTT assay; assay type: toxicity, cell-based, Cricetulus griseus
HL-60 [7] = experiment: Cytotoxicity against human HL-60 cells assessed as reduction in cell viability by MTT assay; assay type: functional, cell-based
L1210 [8] = experiment: Cytotoxicity against mouse L1210 cells assessed as reduction in cell viability by MTT assay; assay type: functional, cell-based
L1210 [9] = experiment: Antiproliferative activity against mouse L1210 cells assessed as reduction in cell viability by MTT assay; assay type: functional, cell-based
[10] = Cytotoxicity against Chinese hamster CHO cells assessed as reduction in cell viability incubated for 48 hrs by MTT assay; assay type: toxicity, cell-based, Cricetulus griseus
HL-60 [11] = experiment: Cytotoxicity against human HL-60 cells assessed as reduction in cell viability incubated for 48 hrs by MTT assay; assay type: functional, cell-based; settings: HL-60, 48 h
L1210 [12] = experiment: Cytotoxicity against mouse L1210 cells assessed as reduction in cell viability incubated for 48 hrs by MTT assay; assay type: functional, cell-based; settings: L1210, 48 h
Hep 3B2 [13] = experiment: Antiproliferative activity against human Hep3B cells assessed as reduction in cell viability incubated for 48 hrs by MTT assay; assay type: functional, cell-based
SMMC-7721 [14] = experiment: Antiproliferative activity against human SMMC-7721 cells assessed as reduction in cell viability incubated for 48 hrs by MTT assay; assay type: functional, cell-based; settings: SMMC-7721, 48 h
MCF7 [15] = experiment: Antiproliferative activity against human MCF7 cells assessed as reduction in cell viability incubated for 48 hrs by MTT assay; assay type: functional, cell-based; settings: MCF7, 48 h
HCT-8 [16] = experiment: Antiproliferative activity against human HCT-8 cells assessed as reduction in cell viability incubated for 48 hrs by MTT assay; assay type: functional, cell-based; settings: HCT-8, 48 h
[17] = Cytotoxicity against mouse BMSC cells assessed as reduction in cell viability incubated for 48 hrs by MTT assay; assay type: toxicity, cell-based
Hep 3B2 [18] = experiment: Antiproliferative activity against human Hep3B cells assessed as reduction in cell viability; assay type: functional, cell-based
CAKI-1 = experiment: Anticancer activity against human CAKI-1 cells assessed as cell growth inhibition; assay type: functional; settings: pooled result: one value given for 3 cell lines, strains, targets or settings

CCn1cc(C(=O)O)c(=O)c2cnc(N3CCN(C(=O)CCSc4nnnn4Cc4ccccc4)CC3)nc21
GI50 (SiHa): 0.06 µM | GI50 (PANC-1): 0.06 µM

CC1COc2c(N3CCN(C)CC3)c(F)cc3c(=O)c(-c4nnc5n4N=C(c4ccc(O)c(O)c4)CS5)cn1c23 (centres undefined)
pIC50 (L1210 [1]): 5.74

O=C(N/N=C/c1ccc2c(c1)OCO2)c1cn(C2CC2)c2cc(N3CCNCC3)c(F)cc2c1=O
pIC50 (SMMC-7721 [2]): 5.54 | pIC50 (MCF7 [3]): 5.54 | pIC50 (HCT-8 [4]): 5.54

O=C(O)c1cn(C2CC2)c2cc(N3CCN(C(=O)CCSc4nnnn4Cc4ccccc4)CC3)c(F)cc2c1=O
GI50 (SiHa): 0.06 µM | GI50 (PANC-1): 0.06 µM

CC1COc2c(N3CCN(C)CC3)c(F)cc3c(=O)c(-c4n[nH]c5cc(-c6ccc(O)c(O)c6)nn45)cn1c23 (centres undefined)
pIC50 (L1210 [1]): 5.92

O=C(O)c1cn(C2CC2)c2cc(N3CCNCC3)c(F)cc2c1=O [CIPROFLOXACIN]
pIC50 (SK-MEL3): < 3.89 | pIC50 (MCF7 [5]): < 3.89 | pIC50 (A-431): < 3.89 | pIC50 (EJ): < 3.89 | pIC50 (KB): < 3.89 | pIC50 (SW480): < 3.89 | pIC50 (CT26): 3.48 | pIC50 (A549): 3.48 | pIC50 [6]: < 3.82 | pIC50 (HL-60 [7]): < 3.82 | pIC50 (L1210 [8]): < 3.82 | pIC50 (L1210 [9]): < 3.82

COc1ccc(/C=N/n2c(-c3cn4c5c(c(N6CCN(C)CC6)c(F)cc5c3=O)OCC4C)n[nH]c2=S)cc1O (centres undefined)
IC50 at 48 h [10]: 10.5 µM | pIC50 (HL-60 [11]): 4.98 | pIC50 (L1210 [12]): 4.98

CCn1cc(C(=O)O)c(=O)c2cc(F)c(N3CCNCC3)cc21 [NORFLOXACIN]
pIC50 (SK-MEL3): < 3.89 | pIC50 (MCF7 [5]): < 3.89 | pIC50 (A-431): < 3.89 | pIC50 (EJ): < 3.89 | pIC50 (KB): < 3.89 | pIC50 (SW480): < 3.89 | pIC50 (CT26): 3.48 | pIC50 (A549): 3.48 | pIC50 (L1210 [9]): < 3.82

CCN1CCN(c2cc3c(cc2F)c(=O)c(-c2nnc4sc(-c5cn(C6CC6)c6cc(N7CCN(C)CC7)c(F)cc6c5=O)nn24)cn3C2CC2)CC1
pIC50 (L1210 [9]): 5.60

C[C@H]1COc2c(N3CCN(C)CC3)c(F)cc3c(=O)c(-c4nnc(S)o4)cn1c23
pIC50 [6]: < 4.30 | pIC50 (HL-60 [7]): < 4.30 | pIC50 (SMMC-7721 [2]): < 4.30

COc1cc(/C=N/NC(=O)c2cn3c4c(c(N5CCN(C)CC5)c(F)cc4c2=O)OC[C@@H]3C)cc(OC)c1OC
pIC50 (Hep 3B2 [13]): 5.66 | pIC50 (SMMC-7721 [14]): 5.66 | pIC50 (MCF7 [15]): 5.66 | pIC50 (HCT-8 [16]): 5.66 | IC50 at 48 h [17]: 7.46 µM

COc1cc(/C=N/n2c(-c3cn4c5c(c(N6CCN(C)CC6)c(F)cc5c3=O)OCC4C)nn(CN(C)C)c2=S)ccc1O (centres undefined)
IC50 at 48 h [10]: 0.14 µM | pIC50 (HL-60 [11]): 6.85 | pIC50 (L1210 [12]): 6.85

O=c1c(-c2nnc3n2N=C(c2ccc(O)c(O)c2)CS3)cn(C2CC2)c2cc(N3CCNCC3)c(F)cc12
pIC50 (L1210 [1]): 5.85

CCn1cc(-c2nn(CNc3ccc(Cl)cc3)c(=S)o2)c(=O)c2cc(F)c(N3CCN(C)CC3)cc21
pIC50 (Hep 3B2 [18]): 4.34

CCN1CCN(c2cc3c(cc2F)c(=O)c(-c2nnc4sc(-c5cn(C6CC6)c6cc(N7CCNCC7)c(F)cc6c5=O)nn24)cn3C2CC2)CC1
pIC50 (L1210 [9]): 6.70

C=C1CC(CN2CCN(c3cc4c(cc3F)c(=O)c(C(=O)O)cn4CC)CC2)(c2ccccc2)OC1=O (centres undefined)
GI50 (CAKI-1): 3.39 µM

COc1ccc(/C=N/n2c(-c3cn4c5c(c(N6CCN(C)CC6)c(F)cc5c3=O)OCC4C)nn(CN(C)C)c2=S)cc1O (centres undefined)
IC50 at 48 h [10]: 0.14 µM | pIC50 (HL-60 [11]): 6.85 | pIC50 (L1210 [12]): 6.85

O=C(O)c1cn(C2CC2)c2cc(N3CCN(C(=O)CCSc4nnnn4-c4ccc(Br)cc4)CC3)c(F)cc2c1=O
GI50 (SiHa): 0.06 µM | GI50 (PANC-1): 0.06 µM
